Five compounds from patent US12331054B2, “Perk inhibiting imidazolopyrazine compounds” (HiberCell, Inc., priority 2019, dated 2025) can be followed below.

Structures are written as SMILES.

Experiment [1] deals with Recombinant human EIF2AK3 (PERK) catalytic domain (amino acids 536-1116) (Homo sapiens (Human), UniProt Q9NZJ5). The experiment can be described thus: PERK In Vitro Activity Assay (isolated), TR-FRET kinase assay. The following applies: isolated PERK enzyme, 1.5 μM ATP, read-out: Biochemical IC50. Put shortly:
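IC50 values come from 4-parameter logistic fits of TR-FRET ratios, read after 90 min with 2 nM terbium-labelled phospho-eIF2a antibody following an EDTA stop (10 mM final). The kinase reaction ran 45 min at room temperature, started by adding PERK catalytic domain to 100–200 nM GFP-eIF2a in HEPES pH 7.5 buffer with MgCl2, EGTA and Brij-35.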
Background: In TR-FRET formats the signal depends on donor and acceptor labels being close together.

Experiment [2] relates to eIF2α in HEK293-EGFP-eIF2α cells. The experiment can be described thus: PERK Cellular Assay (HEK293-EGFP-eIF2α cells, tunicamycin-induced ER stress, TR-FRET). Type of experiment: cell-based. The following applies: tunicamycin 2 hours. The gist of the method:
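After 2 h tunicamycin ([…]) stress following 30 min compound pretreatment at 37 °C, lysed HEK293-EGFP-eIF2α cells were read by TR-FRET. IC50 derived by 4-parameter logistic fitting of percent inhibition, DMSO-normalized, from 10-point 3-fold dilutions.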

A word on the IC50: it is the point on the concentration scale where inhibition reaches its midpoint.

Chain of Recombinant human EIF2AK3 (PERK) catalytic domain (amino acids 536-1116) (Q9NZJ5 536-1116): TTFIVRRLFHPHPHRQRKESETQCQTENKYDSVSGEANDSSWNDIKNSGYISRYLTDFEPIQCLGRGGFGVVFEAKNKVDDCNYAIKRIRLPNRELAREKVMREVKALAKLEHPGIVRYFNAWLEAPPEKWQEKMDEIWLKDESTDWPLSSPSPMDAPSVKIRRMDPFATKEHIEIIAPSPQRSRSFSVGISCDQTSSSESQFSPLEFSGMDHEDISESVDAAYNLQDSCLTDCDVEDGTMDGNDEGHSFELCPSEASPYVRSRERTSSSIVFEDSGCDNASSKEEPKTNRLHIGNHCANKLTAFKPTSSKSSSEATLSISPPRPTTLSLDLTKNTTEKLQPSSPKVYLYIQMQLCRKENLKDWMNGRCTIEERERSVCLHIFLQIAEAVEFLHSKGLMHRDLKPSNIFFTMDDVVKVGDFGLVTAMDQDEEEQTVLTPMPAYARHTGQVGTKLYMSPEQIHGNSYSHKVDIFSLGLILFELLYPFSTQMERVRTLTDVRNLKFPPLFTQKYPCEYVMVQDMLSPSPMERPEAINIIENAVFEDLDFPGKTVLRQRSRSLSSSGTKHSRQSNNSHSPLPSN

In the case of `[2H]C([2H])([2H])c1nc(-c2ccc(NC(=O)C(O)c3cccc(Cl)c3)c(F)c2F)c2c(N)nc(C)cn12` (stereo not shown) [Example 140, N-[4-[8-amino-6-methyl-3-(trideuteriomethyl)imidazo[1,5-a]pyrazin-1-yl]-2,3-difluoro-phenyl]-2-(3-chlorophenyl)-2-hydroxy-acetamide], the IC50 in experiment [1] and in experiment [2] was 0.001 to 0.025 µM in each case.

As to `[2H]C([2H])([2H])c1nc(-c2ccc(NC(=O)C(O)c3cccc(C(F)(F)F)c3)c(F)c2F)c2c(N)ncc(Cl)n12` (stereo not shown) [Example 153, N-[4-[8-amino-5-chloro-3-(trideuteriomethyl)imidazo[1,5-a]pyrazin-1-yl]-2,3-difluoro-phenyl]-2-hydroxy-2-[3-(trifluoromethyl)phenyl]acetamide], the half-maximal inhibitory concentration (IC50) in experiment [1] lay in the range of 0.026 to 0.05 µM; in experiment [2], 0.101 to 0.25 µM.

Consider `[2H]C([2H])([2H])c1nc(-c2ccc(NC(=O)C(O)c3cccc(C(F)(F)F)c3)c(F)c2F)c2c(N)ncc(C(F)(F)F)n12` (stereo not shown) [Example 148, N-[4-[8-amino-3-(trideuteriomethyl)-5-(trifluoromethyl)imidazo[1,5-a]pyrazin-1-yl]-2,3-difluoro-phenyl]-2-hydroxy-2-[3-(trifluoromethyl)phenyl]acetamide], for which the half-inhibitory concentration (IC50) in experiment [1] and in experiment [2] was 0.001 to 0.025 µM each time.

As to `[2H]C([2H])([2H])c1nc(-c2ccc(NC(=O)C(O)c3cccc(F)c3)c(F)c2F)c2c(N)ncc(Cl)n12` (stereo not shown) [Example 137, N-[4-[8-amino-5-chloro-3-(trideuteriomethyl)imidazo[1,5-a]pyrazin-1-yl]-2,3-difluoro-phenyl]-2-(3-fluoro-phenyl)-2-hydroxy-acetamide], the IC50 in experiment [1] fell in the range of 0.001 to 0.025 µM; in experiment [2] it was 0.251 to 0.5 µM.

With `Cc1cn2c(C)nc(-c3ccc(NC(=O)C(O)c4cccc(F)c4)cc3C)c2c(N)n1` (single isomer, unassigned) [Example 3, N-(4-(8-amino-3,6-dimethylimidazo[1,5-a]pyrazin-1-yl)-3-methylphenyl)-2-(3-fluorophenyl)-2-hydroxyacetamide], the concentration for half-maximal inhibition (IC50) in experiment [1] was 0.001 to 0.025 µM; in experiment [2] it was 0.026 to 0.05 µM.
